Source: US20080306007A1, “AGENTS FOR PROPHYLAXIS OR TREATMENT OF NEUROLOGICAL RELATED DISEASES AND CONDITIONS” (Newcastle Innovation Limited, priority 2007, published 2008)

Key:
[1] = target: T1, endophilin I binding to DynI-PRD (Rattus norvegicus, UniProt O35179); assay: GST-DynI-PRD pull-down with peptide competition: endophilin I; settings: increasing amounts of peptide
T1 construct: from tissue; host or cells: target from total rat brain extract; GST-DynI-PRD made in house in Escherichia coli
T1 sequence (O35179 whole entry): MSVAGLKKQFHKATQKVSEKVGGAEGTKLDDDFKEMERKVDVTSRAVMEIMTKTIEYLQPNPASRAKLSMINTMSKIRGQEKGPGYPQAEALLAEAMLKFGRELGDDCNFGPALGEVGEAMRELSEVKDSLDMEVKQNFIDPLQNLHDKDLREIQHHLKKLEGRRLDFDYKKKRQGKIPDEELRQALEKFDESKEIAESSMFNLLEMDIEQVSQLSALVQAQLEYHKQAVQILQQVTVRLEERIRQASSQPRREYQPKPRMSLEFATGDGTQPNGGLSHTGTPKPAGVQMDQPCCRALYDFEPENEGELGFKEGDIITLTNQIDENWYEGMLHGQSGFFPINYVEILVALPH
Method: (§1) Total rat brain extract was prepared by homogenising brain tissue in ice-cold lysis buffer (1% Triton X-100, 150 mM NaCl, 25 mM Tris pH 7.4, 1 mM EDTA, 1 mM EGTA, 20 μg/ml leupeptin, 1 mM phenylmethylsulfonyl fluoride and EDTA-free Complete protease inhibitor (Roche)). The homogenate was centrifuged twice at 75,600 g for 30 min at 4° C. The supernatant was pre-cleared by addition of GSH-sepharose beads for 1 h, pelleted at 50 g for 5 min at 4° C., and the supernatant collected. GST-DynI-PRD recombinant proteins were then incubated with an equal amount of tissue lysate at 4° C. for 1 h. Beads were washed extensively with ice-cold 20 mM Tris pH 7.4 containing 1 mM EGTA, eluted in 2×SDS-PAGE sample buffer, resolved on 7.5-15% gradient SDS gels and stained with colloidal Coomassie Blue. Identification of proteins was by matrix-assisted laser desorption ionization time-of-flight mass spectrometry (MALDI-TOF MS). Some peptides were sequenced by tandem MS/MS.
(§2) A common characteristic of most binding sites for SH3 domains is the presence of the core amino acid motif PxxP, which is often followed or preceded by a basic Arg residue. There are 13 such motifs in the dynamin I PRD (numbered from site 1 at the N-terminus of the PRD at Pro-753 in dynamin I). […]

[2] = target: T2, Syndapin I binding to DynI-PRD (Rattus norvegicus, UniProt Q9Z0W5); assay: GST-DynI-PRD pull-down from rat brain lysate with peptide competition: syndapin I; settings: increasing amounts of peptide
T2 construct: from tissue; host or cells: target from total rat brain extract; GST-DynI-PRD made in house in Escherichia coli
T2 sequence (Q9Z0W5 whole entry): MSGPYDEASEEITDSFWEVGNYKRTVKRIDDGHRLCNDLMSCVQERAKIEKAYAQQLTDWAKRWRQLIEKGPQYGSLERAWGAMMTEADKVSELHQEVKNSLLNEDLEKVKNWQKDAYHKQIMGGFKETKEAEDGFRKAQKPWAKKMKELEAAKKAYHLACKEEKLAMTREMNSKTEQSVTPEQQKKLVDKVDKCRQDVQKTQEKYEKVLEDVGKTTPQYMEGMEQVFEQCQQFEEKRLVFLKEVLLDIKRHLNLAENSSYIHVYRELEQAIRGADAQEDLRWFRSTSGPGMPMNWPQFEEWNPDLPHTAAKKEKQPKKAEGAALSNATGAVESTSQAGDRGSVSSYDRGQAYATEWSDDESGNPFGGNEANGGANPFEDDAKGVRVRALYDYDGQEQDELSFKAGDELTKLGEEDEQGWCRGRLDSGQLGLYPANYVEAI
Method: as §1, §2

[3] = target: T3, amphiphysin I binding to DynI-PRD (Rattus norvegicus, UniProt O08838); assay: GST-DynI-PRD pull-down with peptide competition: amphiphysin I
T3 construct: it is full-length amphiphysin I being detected in the present study; from tissue; host or cells: target from total rat brain extract; GST-DynI-PRD made in house in Escherichia coli
T3 sequence (O08838 1-683): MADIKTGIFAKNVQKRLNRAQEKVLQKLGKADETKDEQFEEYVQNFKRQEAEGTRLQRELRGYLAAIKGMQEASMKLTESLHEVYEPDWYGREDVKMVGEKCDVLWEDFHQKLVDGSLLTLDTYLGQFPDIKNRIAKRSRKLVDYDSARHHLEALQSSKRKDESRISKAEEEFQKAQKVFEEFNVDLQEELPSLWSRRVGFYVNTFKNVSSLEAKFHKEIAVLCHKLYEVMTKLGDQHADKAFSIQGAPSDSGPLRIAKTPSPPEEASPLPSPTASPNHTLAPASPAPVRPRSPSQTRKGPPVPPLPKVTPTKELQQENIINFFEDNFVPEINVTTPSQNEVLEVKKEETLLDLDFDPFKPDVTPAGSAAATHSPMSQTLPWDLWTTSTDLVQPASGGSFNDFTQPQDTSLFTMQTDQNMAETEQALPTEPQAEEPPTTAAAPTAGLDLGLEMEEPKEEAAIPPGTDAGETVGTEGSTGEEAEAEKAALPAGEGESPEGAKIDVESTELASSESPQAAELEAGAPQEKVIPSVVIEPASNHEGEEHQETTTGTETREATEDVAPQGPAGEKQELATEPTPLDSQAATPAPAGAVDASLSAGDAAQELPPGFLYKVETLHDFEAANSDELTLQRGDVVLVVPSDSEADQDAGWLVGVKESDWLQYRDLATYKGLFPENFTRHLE
Method: as §1
A common characteristic of most binding sites for SH3 domains is the presence of the core amino acid motif PxxP, which is often followed or preceded by a basic Arg residue. […]
The binding site of amphiphysin I has previously been mapped to a single site, site 9 (FIG. 8), within the dynamin I-PRD (Grabs et al. 1997; Vallis et al. 1999). […] However, it is full-length amphiphysin I being detected in the present study. […]

[4] = system: p85 (the regulatory subunit of PI-3 kinase); assay: GST-DynI-PRD pull-down with peptide competition: p85; format: binding, rat; settings: increasing amounts of peptide
Method: as §1, §2

[5] = system: synaptosomes (SV exocytosis); assay: FM2-10 unloading (SV exocytosis) assay in synaptosomes; format: cell-based, rat; settings: evoked by 30 mM KCl; peptide preincubated 30 min before unloading
Method: (§3) Loading of FM2-10 (Molecular Probes) into recycling synaptosomal SVs was measured as previously described. Data is presented as Ca^2+-dependent FM2-10 unloading, which is the difference between release after loading in plus and minus Ca^2+ solutions. Where indicated, synaptosomes were preincubated with penetratin peptide for 30 min prior to stimulation of FM2-10 loading. […] The same assay was used to monitor the effect of penetratin peptide on SV exocytosis. However, in this instance, the synaptosomes were loaded with FM2-10 in plus Ca^2+ Krebs-like solution and, where indicated, were preincubated with penetratin peptide for 30 min prior to stimulation of FM2-10 unloading. Data is presented as Ca^2+-dependent FM2-10 unloading. The SV internalisation assay was performed as previously described.
A block in SV turnover cannot be ascribed to an inhibition of SVE until an effect on exocytosis has been excluded. Two independent exocytosis assays were conducted to assess this: endogenous glutamate release and FM2-10 unloading. […] Finally, the extent of SVE inhibition by the peptides was quantified by calculating “retrieval efficiency” which takes into account prior exocytosis; a value of less than one indicating a selective SVE inhibition. […]

U2OS cells = assay: Transferrin (Tfn) endocytosis (RME) in U2OS cells; format: cell-based; settings: 15 min peptide preincubation at various concentrations, Tfn 15 min at 37° C.
Method: Briefly, non-neuronal U2OS cells were preincubated with vehicle only or each peptide at various concentrations for 15 min. Cells were then incubated with Tfn for 15 min at 37° C., acid washed, fixed and internalized Tfn was detected by fluorescence microscopy. Quantitative analysis of endocytosis in the presence of different concentrations of the peptides is shown as mean fluorescence as a percent of fluorescence in control cells. The results shown in FIG. 11 are representative of 2 independent experiments. Endocytosis in control cells (no peptide) is expressed as 100%.

[6] = system: synaptosomes (SV exocytosis); assay: KCl-evoked Ca2+-dependent glutamate release assay in synaptosomes; format: cell-based, rat; settings: peptide preincubated 30 min; KCl stimulation
Method: (§4) In all SV recycling studies synaptosomes were prepared from rat cerebral cortex by centrifugation on discontinuous percoll gradients (Dunkley et al. 1986). The glutamate release assay was performed as described before (Cousin and Robinson 2000a). Data is presented as Ca^2+-dependent glutamate release, calculated as the difference between release in plus and minus Ca^2+ solutions. Penetratin peptides (Genemed Synthesis) were preincubated with the synaptosomes for 30 min before stimulation and had no effect on Ca^2+-independent release of glutamate.
A block in SV turnover cannot be ascribed to an inhibition of SVE until an effect on exocytosis has been excluded. Two independent exocytosis assays were conducted to assess this: endogenous glutamate release and FM2-10 unloading. Neither the DynI769-784AA nor DynI769-784EE peptide had any significant effect on KCl-evoked Ca^2+-dependent glutamate release (DynI769-784AA […]±8.4% of control; DynI769-784EE […]±9.5% of control, FIG. 5c). Both peptides had small effects on FM2-10 unloading evoked by 30 mM KCl (DynI769-784AA −81.1±0.8% of control; DynI769-784EE −82.3±0.6% of control, FIG. 5d). Finally, the extent of SVE inhibition by the peptides was quantified by calculating “retrieval efficiency” which takes into account prior exocytosis; a value of less than one indicating a selective SVE inhibition. […]

[7] = system: synaptosomes (synaptic vesicle turnover); assay: SV turnover assay (FM2-10 loading/unloading) in synaptosomes; format: cell-based, rat
Method: as §4, §3
SVE in synaptosomes was measured to determine whether the phosphorylation sites in dynamin I play a direct role in SVE. Since isolated nerve terminals cannot be transfected with DNA, a membrane-permeable peptide strategy was employed. Mimetic peptides (DynI769-784AA (SEQ ID No. 8) and DynI769-784EE (SEQ ID No. 9)) were designed corresponding to the amino acid sequence of the dynamin I phospho-box (FIG. 5a) and were tagged with a penetratin heptapeptide RRMKWKK (SEQ ID No. 12) to facilitate their delivery into synaptosomes. Briefly, synaptosomes were preincubated in the presence or absence of either penetratin peptide (250 μM) prior to FM2-10 loading stimulated by 30 mM KCl. Accumulated FM2-10 was unloaded by another KCl stimulus (indicated by the solid bar). […] If the phosphorylation-regulated syndapin I interaction itself is essential for SVE, the penetratin-linked peptides may inhibit the process. […] The DynI769-784AA peptide (250 μM) inhibited turnover by more than 40% (57.1±2.1% of control), compared to less than 20% with the DynI769-784EE peptide (250 μM, 81.1±2.4% of control).

[8] = system: synaptosomes (SV retrieval from the plasma membrane); assay: FM2-10 SV internalisation assay (purified SVs from synaptosomes); format: cell-based, rat
Method: as §3
If SVE was arrested before SV fission occurred, […]. SVs were purified and their fluorescence values were corrected for dye uptake in the absence of Ca^2+ (Ca^2+-dependent) and normalised to control (n=3, mean ±s.e.m.).

Substance | inhibitory effect on endophilin I binding (relative to syndapin I) [1] | Syndapin I binding to DynI-PRD [2] | peptide concentration needed to inhibit amphiphysin I binding, relative [3] | effect on amphiphysin I binding ([3]; later judged a non-specific artefact of Arg/Pro-rich peptide) | effect on binding to p85 [4] | FM2-10 unloading [5] | endocytosis of transferrin (Tfn), RME (U2OS cells) | KCl-evoked Ca2+-dependent glutamate release [6] | inhibition of SV turnover ([7]; peptide 250 μM) | SV turnover ([7]; peptide 250 μM, 30 min preincubation, FM2-10 loading with 30 mM KCl) | retrieval efficiency (SV turnover/exocytosis) ([7]; using data from either exocytosis assay, value below one = selective SVE inhibition) | inhibition of FM2-10 accumulation in SVs [8] | FM2-10 accumulation in purified SVs (Ca2+-dependent) ([8]; n=3, mean ± s.e.m.)
RRAPAVPPARPGSR (listed as Rattus norvegicus) [DynI783-796, Peptide corresponding to site 2 and site 3 region of dynamin I PRD] | five-fold weaker inhibitory effect | greatly reduced in a concentration-dependent manner | 10 times higher peptide concentrations | inhibitory effect | little effect | – | – | – | – | – | – | – | –
DynI769-784EE: Dynamin I phospho-box mimetic peptide (residues 769-784), EE mutant, tagged with penetratin heptapeptide RRMKWKK (RRMKWKKPAGRREPTSEPTPQRR; listed as Rattus norvegicus) | – | – | – | – | – | 82.3±0.6 % of control | without effect | 90.2±9.5 % of control | less than 20% | 81.1±2.4 % of control | little effect | no significant effect | 90.7±7.1 % of control
